According to PubChem BioAssay AID1259407 (Chemical Carcinogenesis Research Information System (CCRIS), 2018):
Activity calls are given as the source filed them. The rule behind the calls is not given here.

Test system: CCRIS mutagenicity, Ames/micronucleus/aberration tests
Assay: CCRIS mutagenicity studies

With Cc1cc(N=Nc2ccccc2C)ccc1N the mutagenic call (Test System: AMES SALMONELLA TYPHIMURIUM, Strain/Indicator: TA98, Metabolic Activation: HAMSTER, LIVER, S-9, AROCLOR 1254, Method: STANDARD PLATE) was “active; positive”, the mutagenic call (Test System: AMES SALMONELLA TYPHIMURIUM, Strain/Indicator: TA98, Metabolic Activation: HAMSTER, LIVER, S-9, Method: PREINCUBATION (PRIVAL METHOD)) was “active; positive” and the mutagenic call (Test System: AMES SALMONELLA TYPHIMURIUM, Strain/Indicator: TA98, Metabolic Activation: NONE, Method: PREINCUBATION) was “inactive; negative”. The mutagenic call (Test System: AMES SALMONELLA TYPHIMURIUM, Strain/Indicator: TA98, Metabolic Activation: NONE, Method: STANDARD PLATE) was “inactive; negative”, the mutagenic call (Test System: AMES SALMONELLA TYPHIMURIUM, Strain/Indicator: TA98, Metabolic Activation: RAT LIVER S-9, Method: PREINCUBATION) was “active; positive” and the mutagenic call (Test System: AMES SALMONELLA TYPHIMURIUM, Strain/Indicator: TA98, Metabolic Activation: RAT LIVER, CYTOSOL, AROCLOR 1254, Method: PREINCUBATION) was “inactive; negative”. For the same compound, the mutagenic call (Test System: AMES SALMONELLA TYPHIMURIUM, Strain/Indicator: TA98, Metabolic Activation: RAT LIVER, MICROSOMES, AROCLOR 1254, Method: PREINCUBATION) was “active; positive”, the mutagenic call (Test System: AMES SALMONELLA TYPHIMURIUM, Strain/Indicator: TA98, Metabolic Activation: RAT, LIVER, MICROSOMES, AROCLOR 1254, Method: PREINCUBATION) was “active; positive” and the mutagenic call (Test System: AMES SALMONELLA TYPHIMURIUM, Strain/Indicator: TA98, Metabolic Activation: RAT, LIVER, MICROSOMES, O-AMINOAZOTOLUENE, Method: PREINCUBATION) was “inactive; negative”. The mutagenic call (Test System: AMES SALMONELLA TYPHIMURIUM, Strain/Indicator: TA98, Metabolic Activation: RAT, LIVER, MICROSOMES, Method: PREINCUBATION) was “inactive; negative”, the mutagenic call (Test System: AMES SALMONELLA TYPHIMURIUM, Strain/Indicator: TA98, Metabolic Activation: RAT, LIVER, S-9, AROCLOR 1254, HAMSTER, LIVER, S-9, AROCLOR 1254, Method: STANDARD PLATE) was “active; positive” and the mutagenic call (Test System: AMES SALMONELLA TYPHIMURIUM, Strain/Indicator: TA98, Metabolic Activation: RAT, LIVER, S-9, AROCLOR 1254, Method: STANDARD PLATE) was “active; positive”. The mutagenic call (Test System: AMES SALMONELLA TYPHIMURIUM, Strain/Indicator: TA98, Metabolic Activation: RAT, LIVER, S-9, KC500 OR PHENOBARBITAL, Method: LIQUID SUSPENSION) was “active; positive”, the mutagenic call (Test System: AMES SALMONELLA TYPHIMURIUM, Strain/Indicator: TA98, Metabolic Activation: RAT, LIVER, S-9, PCB, Method: PREINCUBATION) was “active; positive” and the mutagenic call (Test System: AMES SALMONELLA TYPHIMURIUM, Strain/Indicator: TA98, Metabolic Activation: RAT, LIVER, S-9, POLYCHLORINATED BIPHENYLS, Method: PREINCUBATION) was “active; positive”. For the same compound, the mutagenic call (Test System: AMES SALMONELLA TYPHIMURIUM, Strain/Indicator: TA100, Metabolic Activation: HAMSTER, LIVER, S-9, AROCLOR 1254, Method: STANDARD PLATE) was “active; positive”, the mutagenic call (Test System: AMES SALMONELLA TYPHIMURIUM, Strain/Indicator: TA100, Metabolic Activation: HAMSTER, LIVER, S-9, Method: PREINCUBATION (PRIVAL METHOD)) was “active; positive” and the mutagenic call (Test System: AMES SALMONELLA TYPHIMURIUM, Strain/Indicator: TA100, Metabolic Activation: NONE, Method: PREINCUBATION) was “inactive; negative”. For the same compound, the mutagenic call (Test System: AMES SALMONELLA TYPHIMURIUM, Strain/Indicator: TA100, Metabolic Activation: NONE, Method: STANDARD PLATE) was “inactive; negative”, the mutagenic call (Test System: AMES SALMONELLA TYPHIMURIUM, Strain/Indicator: TA100, Metabolic Activation: RAT LIVER S-9, Method: PREINCUBATION) was “active; positive” and the mutagenic call (Test System: AMES SALMONELLA TYPHIMURIUM, Strain/Indicator: TA100, Metabolic Activation: RAT, LIVER, S-9, AROCLOR 1254, HAMSTER, LIVER, S-9, AROCLOR 1254, Method: STANDARD PLATE) was “active; positive”. For the same compound, the mutagenic call (Test System: AMES SALMONELLA TYPHIMURIUM, Strain/Indicator: TA100, Metabolic Activation: RAT, LIVER, S-9, AROCLOR 1254, Method: STANDARD PLATE) was “active; positive”, the mutagenic call (Test System: AMES SALMONELLA TYPHIMURIUM, Strain/Indicator: TA100, Metabolic Activation: RAT, LIVER, S-9, KC500 OR PHENOBARBITAL, Method: LIQUID SUSPENSION) was “active; positive” and the mutagenic call (Test System: AMES SALMONELLA TYPHIMURIUM, Strain/Indicator: TA100, Metabolic Activation: RAT, LIVER, S-9, PCB, Method: PREINCUBATION) was “active; positive”. The mutagenic call (Test System: AMES SALMONELLA TYPHIMURIUM, Strain/Indicator: TA100, Metabolic Activation: RAT, LIVER, S-9, POLYCHLORINATED BIPHENYLS, Method: PREINCUBATION) was “active; positive”, the mutagenic call (Test System: AMES SALMONELLA TYPHIMURIUM, Strain/Indicator: TA1538, Metabolic Activation: NONE, Method: STANDARD PLATE) was “inactive; negative” and the mutagenic call (Test System: AMES SALMONELLA TYPHIMURIUM, Strain/Indicator: TA1538, Metabolic Activation: RAT, LIVER, S-9, AROCLOR 1254, HAMSTER, LIVER, S-9, AROCLOR 1254, Method: STANDARD PLATE) was “active; positive”. For the same compound, the mutagenic call (Test System: AMES SALMONELLA TYPHIMURIUM, Strain/Indicator: TA1538, Metabolic Activation: RAT, LIVER, S-9, AROCLOR 1254, Method: STANDARD PLATE) was “active; positive”, the mutagenic call (Test System: MOUSE LYMPHOMA, Strain/Indicator: L5178Y (TK+/TK-), Metabolic Activation: RAT, LIVER, S-9, AROCLOR 1254, Method: SUSPENSION/PLATE) was “active; positive. reevaluation of results: positive” and the mutagenic call (Test System: Mouse lymphoma, Strain/Indicator: L5178Y (tk+/tk-), Metabolic Activation: None, Method: Suspension/plate) was “inactive; negative”.
